The values that follow come from a melting point compilation (Tetko et al.; mined from patent text by program, amines drawn as free bases though some values may be those of a salt).

Take `O=C(O)c1cc(Br)c2ccccn2c1=O`: the melting point (usually the temperature, or range, at which the solid turns liquid) is more than 250 °C. On to `COC(=O)c1ncc[nH]1`, for which the melting point was in the range of 187 to 188 °C. In the case of `Cc1nc2c(N)nc3ccccc3c2n1CCOCCCc1ccccc1` it was 130 to 131 °C; in that of `CC(C)C(=O)NCCNCC(O)COc1ccccc1` (single isomer, unassigned; (-)), 89 to 91 °C; in that of `Fc1ccc(C2CC3CCC(C3)C23CO3)cc1` (centres undefined), 178 to 180 °C. In the case of `Nc1cc(C(=O)O)cc(OCc2ccc(Cl)cc2)c1Cc1ccccc1` it was 199 to 200 °C.

`CCCc1nc(C)n2nc(N)nc2c1Cc1ccc(-c2ccccc2C#N)cc1` had a melting point of 150 °C.

In turn, `O=C(O)C(Cl)=C(Cl)C(O)=NCCc1ccc(F)cc1` displayed a melting point of 137 to 138 °C. `COCc1ccc(OC)c(Br)c1O`: the melting point lay in the range of 98 to 100 °C. In the case of `CS(=O)(=O)n1c(C#N)nc2cc3c(cc21)OC(F)(F)C(F)(F)O3` it was 180 to 183 °C; in that of `CC(=O)Oc1ccc2c(c1Cl)Sc1ccccc1N2C(C)=O`, 155 °C. To `CS(=O)(=O)c1ccc(-c2cnn(CC(F)(F)F)c(=O)c2Oc2cccnc2)cc1` belongs 191 to 193 °C; to `CCOC(=O)c1c[nH]c2c(F)c(C)c(F)cc2c1=O`, 260 to 263 °C.

As for `COc1cccc(N(CCN2CCC(C(=O)c3ccc(F)cc3)CC2)C(=O)c2ccc(NC(C)=O)cc2)c1`, the melting point was in the range of 146 to 152 °C. In the case of `CC(C(=O)NC(C)(C#N)C(C)C)c1ccc(Br)cc1` (centres undefined) it was 98 to 99 °C; in that of `O=C1NN(C(=O)Nc2ccc(OCc3ccccc3)cc2)C(c2ccccc2)C1c1ccccc1` (centres undefined), 127 to 130 °C. To `COc1cccc2sc(-c3ccc(C(C)(C)C)cc3)nc12` belongs 90 to 91 °C. `CCOc1cc2nc(NC)nc(-c3cccc(Br)c3)c2cc1OCC` had a melting point of 130 to 132 °C. To `CC(=O)CCc1c(C)c(OC(C)=O)c(C)c(C)c1OC(C)=O` belongs 85 to 87.5 °C; to `CC#COc1ccc2c(=O)c3ccccc3oc2c1`, 142 to 144 °C. In the case of `CCCCCCCCC(CCC(=O)O)(CCC(=O)O)C(C)=O` it was 69 to 71 °C; in that of `C=CCCn1cnc2c1c(=O)n(CCCC)c(=O)n2CCCC`, 41 to 42 °C. Take `O=C1c2ccccc2-n2cnc(I)c2[C@@H]2CCCN12`: the melting point lay within 222 to 223 °C. To `COc1ccc(N2CCN(C3CCN(CC(O)COc4cccc5[nH]c(C)cc45)CC3)C2=O)cc1` (centres undefined) belongs 155 to 157 °C; to `CCCCCCCCCCC1CCCC1C(=O)Nc1c(OC)ccc2ncccc12` (centres undefined), 57 to 58 °C; to `Cc1nn(-c2cccc(C(F)(F)F)c2)cc1C(=O)O`, 166 to 168 °C. To `COC(=O)c1cc(F)c(F)c2c1NC(C)C2` (centres undefined) belongs 50 to 52 °C; to `CS(=O)c1ncc2n1-c1ccc(Cl)cc1C(c1ccccc1F)=NC2` (centres undefined), 95 to 110 °C. `O=C(c1ccccc1)c1ccc(-c2nc(COc3ccc(CCCn4ccnc4)cc3)co2)cc1` had a melting point of 112 to 113 °C.

As to `CC(C)(C)OC(=O)N1CC[C@H](c2ccc(OCC3OCCO3)cc2)[C@@H](O)C1` (racemic), the melting point lay within 136 to 137 °C. To `COc1ccccc1C(=O)NS(=O)(=O)c1ccc(NC(=O)c2ccc(Cl)cc2Cl)cc1` belongs 140 to 146 °C.

Molecule `O=C(O)c1cc(Cl)c2cccnc2c1O` had a melting point of 285 to 287 °C. In the case of `CCC1(CC)OC(=S)Nc2ccc(-c3cccc([N+](=O)[O-])c3)cc21` it was 180 to 181 °C; in that of `COC(=O)c1ccc(C(=O)C#Cc2cc(-c3cccs3)c(OC)cc2OC)cc1`, 198 to 200 °C; in that of `COc1cccc2c1nc(C(F)F)n2-c1nc(Nc2ccc(N(C)S(C)(=O)=O)nc2)nc(N2CCOCC2)n1`, 250 to 253 °C. To `N#Cc1cccc(CSCCNC(=O)c2c(Cl)cccc2Cl)c1` belongs 123 to 125 °C; to `CCC(N(C)C)n1cc(C(=O)CN2CCCCC2)cc1C(=O)c1ccc(Cl)cc1` (centres undefined), 138 to 141 °C.

`CCOC(=O)c1c(CN(CC)CC)nc2sc3c(c2c1-c1ccc(OC)c(OC)c1)CCN(C(=O)c1ccc(Cl)cc1)C3` showed a melting point of 96 to 98 °C. To `CN(C)CCc1c[nH]c2ccc(C(N)=S)cc12` belongs 155 °C; to `CCOC(=O)CN=c1sc2ccccc2s1`, 88 to 89 °C. `CCCCCCCCCCCCCCOc1ccc(CN(C(C)=O)c2cccc(CO)c2)cc1`: the melting point fell in the range of 65 to 67 °C. To `O=C1CCC(C=Cc2ccc(-n3ccnc3)cc2)=NN1` belongs 230 to 231 °C. In the case of `CCOC(=O)c1ccc2[nH]ccc2c1` it was 94 to 95 °C; in that of `COc1cc([N+](=O)[O-])c2ncccc2c1OCC(F)(F)F`, 109 to 115 °C; in that of `CCOC(=O)c1cn(C2CC2)c2cc(F)c(F)cc2c1=O`, 189 to 191 °C. To `O=c1ccc2c(O)cccc2o1` belongs 224 to 225 °C; to `Cc1cc(C)c(N2CCCc3c2nn(C)c3C(=O)O)c(Cl)c1`, 248 °C. In turn, `c1ccc(CNCCOc2ccc3ccccc3c2)cc1` displayed a melting point of 94 °C.

Consider `CC1(C)CCC(C)(C)c2c(O)cc(C=O)cc21`, for which the melting point turned out to be 144 °C.

`CN(C)CC1CCCCN1C(=O)c1ccc(-c2[nH]nc3c2C(=O)c2c(NC(=O)NN4CCOCC4)cccc2-3)s1` (centres undefined): the melting point is more than 300 °C.

Molecule `Cc1nc2ccccc2c(NCC(O)CO)c1Br` (centres undefined) returned a melting point of 140 to 141 °C. With `COCCn1nc(-c2cc(C(C)(C)C)c(O)c(C(C)(C)C)c2)c2cccnc21`, the melting point was in the range of 111 to 113 °C. In the case of `Cc1ccc2nc(-c3cccnc3N)n(-c3ccc(CNC(=O)c4ccccc4)cc3)c2n1` it was 203 to 205 °C. `CC(=O)n1ccc(-c2ccc(F)cc2)c1-c1ccc(S(C)(=O)=O)cc1` showed a melting point of 211 to 214 °C. To `CN(C1CCCCC1)S(=O)(=O)c1ccc(CCSn2cnc3ccccc32)cc1` belongs 60 to 63 °C; to `Cc1nnc(-c2ccc3occ(-c4cc(F)ccc4F)c3c2)o1`, 143 to 144 °C. Molecule `COc1cc(C(=O)C(Br)Br)cc(OC)c1OC` came in with a melting point of 67 to 68 °C. To `COC(=O)c1c(C)nc(-c2ccccc2)nc1-c1cccc([N+](=O)[O-])c1` belongs 128 to 130 °C; to `CCC1(O)CC(=O)OCc2c1cc1n(c2=O)Cc2c-1nc1ccccc1c2-c1ccccc1` (centres undefined), more than 250 °C; to `CCCCn1cc(C2CCN(Cc3ccc(OC)c(C(=O)O)c3)CC2)c2cccnc21`, 174 to 175 °C. To `O=C(NC(=O)c1ccccc1Br)Nc1cc(C(F)(F)F)c(Cl)cc1Br` belongs 193 °C. In turn, `OC1CSC(Oc2cccc(-c3cc(Cl)ccn3)c2)C(O)C1O` (centres undefined) showed a melting point of 97 to 105 °C. Take `CNc1nc(NC)c2ncn(COC(CO)CO)c2n1`: the melting point was determined as 198 °C. With `O=C1CCCc2ccc(OCCCC(=O)N3CCOCC3)cc21`, the melting point fell in the range of 88 to 90 °C.
